{
  "source": "ChEMBL document CHEMBL1201862",
  "about": "“PubChem BioAssay data set” (2004)",
  "assay_in_all_cases": "growth of human tumour cells (NCI), 48 h",
  "key": {"RXF 393": {"test_system": "RXF 393"}, "COLO 205": {"test_system": "COLO 205"}, "HCT-116": {"test_system": "HCT-116"}, "DLD-1": {"test_system": "DLD-1"}, "NCI-H23": {"test_system": "NCI-H23"}, "SK-OV-3": {"test_system": "SK-OV-3"}, "SNB-19": {"test_system": "SNB-19"}, "OVCAR-5": {"test_system": "OVCAR-5"}, "LXFL 529": {"test_system": "LXFL 529"}, "RPMI-8226": {"test_system": "RPMI-8226"}, "KM-20L2": {"test_system": "KM-20L2"}, "DMS-114": {"test_system": "DMS-114"}, "Malme-3M": {"test_system": "Malme-3M"}, "SF-295": {"test_system": "SF-295"}, "HOP-92": {"test_system": "HOP-92"}, "TK-10": {"test_system": "TK-10"}, "SNB-78": {"test_system": "SNB-78"}, "DMS-273": {"test_system": "DMS-273"}, "SN12C": {"test_system": "SN12C"}, "SW-620": {"test_system": "SW-620"}, "HCT-15": {"test_system": "HCT-15"}, "CCRF-CEM": {"test_system": "CCRF-CEM"}, "SK-MEL-5": {"test_system": "SK-MEL-5"}, "HOP-62": {"test_system": "HOP-62"}, "A498": {"test_system": "A498"}, "NCI-H460": {"test_system": "NCI-H460"}, "HL-60": {"test_system": "HL-60"}, "K562": {"test_system": "K562"}, "UACC-62": {"test_system": "UACC-62"}, "SF-539": {"test_system": "SF-539"}, "OVCAR-3": {"test_system": "OVCAR-3"}, "U-251": {"test_system": "U-251"}, "M14": {"test_system": "M14"}, "OVCAR-8": {"test_system": "OVCAR-8"}, "ACHN": {"test_system": "ACHN"}, "HT-29": {"test_system": "HT-29"}, "EKVX": {"test_system": "EKVX"}, "M19-MEL": {"test_system": "M19-MEL"}, "OVCAR-4": {"test_system": "OVCAR-4"}, "HOP-18": {"test_system": "HOP-18"}, "SK-MEL-28": {"test_system": "SK-MEL-28"}, "CAKI-1": {"test_system": "CAKI-1"}, "NCI-H226": {"test_system": "NCI-H226"}, "SNB-75": {"test_system": "SNB-75"}, "SK-MEL-2": {"test_system": "SK-MEL-2"}, "IGROV-1": {"test_system": "IGROV-1"}, "SF-268": {"test_system": "SF-268"}, "786-0": {"test_system": "786-0"}, "HCC 2998": {"test_system": "HCC 2998"}, "MOLT-4": {"test_system": "MOLT-4"}, "KM12": {"test_system": "KM12"}, "A549": {"test_system": "A549"}, "XF498": {"test_system": "XF498"}, "RXF 631": {"test_system": "RXF 631"}, "NCI-H522": {"test_system": "NCI-H522"}, "UACC-257": {"test_system": "UACC-257"}, "SR": {"test_system": "SR"}, "UO-31": {"test_system": "UO-31"}, "LOX IMVI": {"test_system": "LOX IMVI"}},
  "note": "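Cultured in 96-well plates, cells were exposed to test compound for 48 hours across five concentrations. Abbreviation: GI50, concentration required for 50% inhibition of growth.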 Calls of active or inactive are those of the source. Cut-off read from the data, not from the text of the source: active = GI50 up to about 1.1 µM and inactive = higher.",
  "data": [
    {"smiles": "COC(=O)CC(NC(=O)OCc1ccccc1)C(C(C)=O)C(=O)OCc1ccccc1", "note": "(centres undefined)", "values": [
      {"measurement": "GI50", "setting": "RXF 393", "result": "> 10 µM (inactive)"},
      {"measurement": "GI50", "setting": "COLO 205", "result": "> 31.6 µM (inactive)"},
      {"measurement": "GI50", "setting": "HCT-116", "result": "> 31.6 µM (inactive)"},
      {"measurement": "GI50", "setting": "DLD-1", "result": "> 31.6 µM (inactive)"},
      {"measurement": "GI50", "setting": "NCI-H23", "result": "> 31.6 µM (inactive)"},
      {"measurement": "GI50", "setting": "SK-OV-3", "result": "> 31.6 µM (inactive)"},
      {"measurement": "GI50", "setting": "SNB-19", "result": "> 10 µM (inactive)"},
      {"measurement": "GI50", "setting": "OVCAR-5", "result": "> 100 µM (inactive)"},
      {"measurement": "GI50", "setting": "LXFL 529", "result": "5.48 µM (inactive)"},
      {"measurement": "GI50", "setting": "RPMI-8226", "result": "> 31.6 µM (inactive)"},
      {"measurement": "GI50", "setting": "KM-20L2", "result": "> 31.6 µM (inactive)"},
      {"measurement": "GI50", "setting": "DMS-114", "result": "> 31.6 µM (inactive)"},
      {"measurement": "GI50", "setting": "Malme-3M", "result": "> 10 µM (inactive)"},
      {"measurement": "GI50", "setting": "SF-295", "result": "> 100 µM (inactive)"},
      {"measurement": "GI50", "setting": "HOP-92", "result": "> 31.6 µM (inactive)"},
      {"measurement": "GI50", "setting": "TK-10", "result": "> 31.6 µM (inactive)"},
      {"measurement": "GI50", "setting": "SNB-78", "result": "> 31.6 µM (inactive)"},
      {"measurement": "GI50", "setting": "DMS-273", "result": "> 31.6 µM (inactive)"},
      {"measurement": "GI50", "setting": "SN12C", "result": "> 31.6 µM (inactive)"},
      {"measurement": "GI50", "setting": "SW-620", "result": "> 31.6 µM (inactive)"},
      {"measurement": "GI50", "setting": "HCT-15", "result": "> 31.6", "unit": "µM"},
      {"measurement": "GI50", "setting": "CCRF-CEM", "result": "> 31.6 µM (inactive)"},
      {"measurement": "GI50", "setting": "SK-MEL-5", "result": "> 31.6 µM (inactive)"},
      {"measurement": "GI50", "setting": "HOP-62", "result": "> 10 µM (inactive)"},
      {"measurement": "GI50", "setting": "A498", "result": "> 31.6 µM (inactive)"},
      {"measurement": "GI50", "setting": "NCI-H460", "result": "> 31.6 µM (inactive)"},
      {"measurement": "GI50", "setting": "HL-60", "result": "> 31.6 µM (inactive)"},
      {"measurement": "GI50", "setting": "K562", "result": "> 31.6 µM (inactive)"},
      {"measurement": "GI50", "setting": "UACC-62", "result": "> 31.6 µM (inactive)"},
      {"measurement": "GI50", "setting": "SF-539", "result": "> 31.6 µM (inactive)"},
      {"measurement": "GI50", "setting": "OVCAR-3", "result": "> 31.6 µM (inactive)"},
      {"measurement": "GI50", "setting": "U-251", "result": "> 31.6 µM (inactive)"},
      {"measurement": "GI50", "setting": "M14", "result": "> 31.6 µM (inactive)"},
      {"measurement": "GI50", "setting": "OVCAR-8", "result": "> 31.6 µM (inactive)"},
      {"measurement": "GI50", "setting": "ACHN", "result": "> 31.6 µM (inactive)"},
      {"measurement": "GI50", "setting": "HT-29", "result": "> 10 µM (inactive)"},
      {"measurement": "GI50", "setting": "EKVX", "result": "> 31.6 µM (inactive)"},
      {"measurement": "GI50", "setting": "M19-MEL", "result": "> 31.6 µM (inactive)"},
      {"measurement": "GI50", "setting": "OVCAR-4", "result": "> 10 µM (inactive)"},
      {"measurement": "GI50", "setting": "HOP-18", "result": "> 31.6 µM (inactive)"},
      {"measurement": "GI50", "setting": "SK-MEL-28", "result": "> 31.6 µM (inactive)"},
      {"measurement": "GI50", "setting": "CAKI-1", "result": "> 31.6 µM (inactive)"},
      {"measurement": "GI50", "setting": "NCI-H226", "result": "> 10 µM (inactive)"},
      {"measurement": "GI50", "setting": "SNB-75", "result": "20.2 µM (inactive)"},
      {"measurement": "GI50", "setting": "SK-MEL-2", "result": "> 10 µM (inactive)"},
      {"measurement": "GI50", "setting": "IGROV-1", "result": "> 31.6 µM (inactive)"},
      {"measurement": "GI50", "setting": "SF-268", "result": "> 31.6 µM (inactive)"},
      {"measurement": "GI50", "setting": "786-0", "result": "> 31.6 µM (inactive)"},
      {"measurement": "GI50", "setting": "HCC 2998", "result": "> 10 µM (inactive)"},
      {"measurement": "GI50", "setting": "MOLT-4", "result": "> 31.6 µM (inactive)"},
      {"measurement": "GI50", "setting": "KM12", "result": "> 31.6 µM (inactive)"},
      {"measurement": "GI50", "setting": "A549", "result": "> 31.6 µM (inactive)"},
      {"measurement": "GI50", "setting": "XF498", "result": "> 10 µM (inactive)"},
      {"measurement": "GI50", "setting": "RXF 631", "result": "> 10 µM (inactive)"},
      {"measurement": "GI50", "setting": "NCI-H522", "result": "> 31.6 µM (inactive)"},
      {"measurement": "GI50", "setting": "UACC-257", "result": "> 31.6 µM (inactive)"},
      {"measurement": "GI50", "setting": "SR", "result": "> 100 µM (inactive)"},
      {"measurement": "GI50", "setting": "UO-31", "result": "> 31.6 µM (inactive)"},
      {"measurement": "GI50", "setting": "LOX IMVI", "result": "> 100 µM (inactive)"}
    ]}
  ]
}
